Reference: PMC5748833, “Synthesis and Biological Evaluation of Novel Hybrid Molecules Containing Purine, Coumarin and Isoxazoline or Isoxazole Moieties” (The Open Medicinal Chemistry Journal, 2017)

Assays:
[1] = Inhibition of linoleic acid lipid peroxidation (AAPH); conditions: 100 μM compound, 37°C
Procedure: 2.2.2.3 Inhibition of linoleic acid lipid peroxidation
Production of conjugated diene hydroperoxide by oxidation of linoleic acid sodium salt in an aqueous solution was monitored at 234 nm. 2,2’-Azobis(2-amidinopropane) dihydrochloride (AAPH) was used as a free radical initiator. 10 μl of the 16 mM linoleic acid sodium salt solution was added to the UV cuvette containing 0.93 ml of 0.05 M phosphate buffer, pH 7.4 prethermostated at 37°C. The oxidation reaction was initiated at 37°C under air by the addition of 50 μl of 40 mM AAPH solution. Oxidation was carried out in the presence of 10 μl of the examined compounds (stock solution in DMSO). In the assay without antioxidant, lipid oxidation was measured in the presence of the same level of DMSO. The rate of oxidation at 37°C was monitored by recording the increase in absorption at 234 nm caused by conjugated diene hydroperoxides (Table 5). Trolox was used as a standard.
Anti-lipid peroxidation activity. The water-soluble azo compound AAPH has been extensively used as a clean and controllable source of thermally produced alkyl peroxyl free radicals, through spontaneous thermal decomposition. […] In the AAPH assay, the highly reactive alkylperoxyl radicals are intercepted mainly by a hydrogen atom transfer (HAT) from the antioxidant.

soybean lipoxygenase = biological target: T1, soybean lipoxygenase (Glycine max, UniProt P08170); assay: Soybean lipoxygenase inhibition in vitro; assay type: biochemical; conditions: for IC50: read-out: LOX IC50 μΜ
T1 construct: purchased Sigma Chemical, Co. (St. Louis, MO, USA)
T1 sequence (P08170 1-839): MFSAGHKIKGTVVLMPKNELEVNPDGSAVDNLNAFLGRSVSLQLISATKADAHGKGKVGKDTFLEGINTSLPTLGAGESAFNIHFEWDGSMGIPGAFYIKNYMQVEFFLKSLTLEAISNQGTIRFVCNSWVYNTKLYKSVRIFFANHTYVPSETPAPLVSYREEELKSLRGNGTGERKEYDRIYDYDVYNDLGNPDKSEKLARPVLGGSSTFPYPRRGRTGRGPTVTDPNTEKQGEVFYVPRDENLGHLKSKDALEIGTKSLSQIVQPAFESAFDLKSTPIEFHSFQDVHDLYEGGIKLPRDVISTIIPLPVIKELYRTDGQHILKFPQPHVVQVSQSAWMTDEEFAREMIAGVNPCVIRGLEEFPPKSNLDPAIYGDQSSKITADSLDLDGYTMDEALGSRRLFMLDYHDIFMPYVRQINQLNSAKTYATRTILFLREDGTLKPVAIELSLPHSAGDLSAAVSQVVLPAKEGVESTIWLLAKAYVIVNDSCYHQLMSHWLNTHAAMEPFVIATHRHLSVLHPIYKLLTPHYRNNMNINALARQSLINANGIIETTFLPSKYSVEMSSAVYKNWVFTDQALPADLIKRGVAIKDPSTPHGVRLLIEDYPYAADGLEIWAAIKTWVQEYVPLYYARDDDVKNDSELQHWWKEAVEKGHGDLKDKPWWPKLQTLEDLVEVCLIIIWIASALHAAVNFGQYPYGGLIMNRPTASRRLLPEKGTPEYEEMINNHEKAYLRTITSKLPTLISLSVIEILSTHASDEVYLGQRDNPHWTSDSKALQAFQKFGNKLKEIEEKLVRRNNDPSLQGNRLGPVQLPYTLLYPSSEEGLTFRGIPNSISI
Procedure: 2.2.2.4 Soybean lipoxygenase inhibition study in vitro [14]
In vitro study was evaluated as reported previously. The tested compounds dissolved in ethanol were incubated at room temperature with sodium linoleate (0.1 mM) and 0.2 ml of enzyme solution (1/9 x10^-4 w/v in saline). […] Several concentrations were used for the determination of IC50 values (Table 5).
LO is the key enzyme in leukotriene biosynthesis. Leukotrienes derived from the biotransformation of arachidonic acid catalyzed by 5-lipoxygenase (5-LO), are important inflammatory mediators implicated in several diseases. LOs play a role in membrane lipid peroxidation by forming hydroperoxides in the lipid bilayer. […] Most of the LO inhibitors are antioxidants or free radical scavengers, since lipoxygenation occurs via a carbon-centered radical. The evaluation of the novel coumarin hybrids against soybean lipoxygenase LO was accomplished by the UV-based enzyme assay.

[2] = biological target: T2, electric eel acetylcholinesterase (eeAChE) (Electrophorus electricus, UniProt O42275); assay: biochemical; assay type: biochemical; conditions: read-out: eeAChE IC50 μΜ
T2 construct: purchased Sigma
Text: (§1) 2.2.2.5 Inhibition Study on ChEs in vitro
(§2) In vitro inhibition of electric eel acetylcholinesterase (eeAChE; 463 U/mg, Sigma) and equine serum butyrylcholinesterase (esBChE; 13 U/mg, Sigma) was investigated with a 96-well plate procedure based on the classical Ellman’s spectrophotometric test, as already described.

[3] = biological target: T3, equine serum butyrylcholinesterase (esBChE) (Equus caballus, UniProt P81908); assay: Inhibition of esBChE (Ellman's test); assay type: biochemical; conditions: read-out: esBChE % inhibn. @ 10 μΜ
T3 construct: purchased Sigma; host or cells: equine serum
Text: as §1, §2

rat monoamine oxidase A = biological target: T4, rat monoamine oxidase A (Rattus norvegicus, UniProt P21396); assay: Inhibition of MAO-A (spectrofluorimetric method); assay type: biochemical; conditions: 10 μM compound
T4 construct: from tissue
T4 sequence (P21396 1-526): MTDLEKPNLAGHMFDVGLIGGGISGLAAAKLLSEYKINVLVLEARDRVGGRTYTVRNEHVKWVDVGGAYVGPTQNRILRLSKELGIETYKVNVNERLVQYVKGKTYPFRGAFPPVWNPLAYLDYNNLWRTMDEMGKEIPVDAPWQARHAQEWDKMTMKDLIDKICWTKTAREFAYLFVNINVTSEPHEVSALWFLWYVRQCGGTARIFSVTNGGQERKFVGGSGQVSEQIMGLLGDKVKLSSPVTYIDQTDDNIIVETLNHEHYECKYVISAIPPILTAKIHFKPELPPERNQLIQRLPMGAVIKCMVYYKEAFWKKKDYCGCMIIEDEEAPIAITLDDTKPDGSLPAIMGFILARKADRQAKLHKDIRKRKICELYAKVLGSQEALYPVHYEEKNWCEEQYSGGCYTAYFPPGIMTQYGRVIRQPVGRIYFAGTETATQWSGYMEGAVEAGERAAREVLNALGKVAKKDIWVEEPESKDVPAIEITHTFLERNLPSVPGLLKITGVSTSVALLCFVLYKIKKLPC
Text: (§3) 2.2.2.6 Inhibition Study on MAOs in vitro
(§4) Inhibition of rat monoamine oxidase A and B was studied by means of a spectrofluorimetric method as previously detailed.

rat monoamine oxidase B = biological target: T5, rat monoamine oxidase B (Rattus norvegicus, UniProt P19643); assay: Inhibition of MAO-B (spectrofluorimetric method); assay type: biochemical; conditions: 10 μM compound
T5 construct: from tissue
T5 sequence (P19643 1-520): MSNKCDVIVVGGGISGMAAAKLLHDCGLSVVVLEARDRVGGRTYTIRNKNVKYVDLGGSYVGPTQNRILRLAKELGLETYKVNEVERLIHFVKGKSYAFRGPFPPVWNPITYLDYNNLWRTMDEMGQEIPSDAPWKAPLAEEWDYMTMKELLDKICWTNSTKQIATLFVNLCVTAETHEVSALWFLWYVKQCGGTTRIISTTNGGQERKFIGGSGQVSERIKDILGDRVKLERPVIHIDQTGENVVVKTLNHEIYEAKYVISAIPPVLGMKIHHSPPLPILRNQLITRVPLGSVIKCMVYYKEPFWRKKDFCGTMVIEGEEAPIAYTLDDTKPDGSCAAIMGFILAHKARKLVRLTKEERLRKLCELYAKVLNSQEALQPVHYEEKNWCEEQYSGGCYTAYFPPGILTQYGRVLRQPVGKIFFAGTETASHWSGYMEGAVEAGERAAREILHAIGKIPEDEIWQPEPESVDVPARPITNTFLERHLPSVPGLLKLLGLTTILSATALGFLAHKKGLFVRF
Text: as §3, §4

[4] = Reducing activity of the stable radical DPPH; conditions: 100 μM compound, after 20 min
Procedure: 2.2.2.1 Determination of the reducing activity of the stable radical 1, 1-diphenyl-picrylhydrazyl (DPPH)
To a solution of DPPH (100μM) in absolute ethanol an equal volume of the compounds dissolved in ethanol was added. As control solution ethanol was used. The concentration of the solutions of the compounds was 100μM. After 20 and 60 min at room temperature the absorbance was recorded at 517 nm (Table 5). NDGA was used as a standard.
The compounds were studied for their antioxidant activity by the use of the stable 2,2-diphenyl-1-picrylhydrazyl radical (DPPH) at concentration 0.1mM after 20 min. […] This purple colour generally disappears in the presence of an antioxidant. The reduction of absorbance is a measure of the free DPPH due to the action of the antioxidant. The antioxidant activity was expressed as the RA% (Reducing Activity). […] Within the group of derivatives 4 the presence of the morpholinyl or piperidinyl rings at position A as well as the carbonyl group at position B, hinder the interaction of the compounds to the free stable radical DPPH.

[5] = Competition of the tested compounds with DMSO for hydroxyl radicals; conditions: 100 μM compound, Fe3+/ascorbic acid, 30 min, 37°C
Procedure: 2.2.2.2 Competition of the tested compounds with DMSO for hydroxyl radicals
The hydroxyl radicals generated by the Fe ^3+ /ascorbic acid system, were detected according to Nash, by the determination of formaldehyde produced from the oxidation of DMSO. The reaction mixture contained EDTA (0.1 mM), Fe ^3+ (167 μM), DMSO (33 mM) in phosphate buffer (50 mM, pH 7.4), the tested compounds (concentration 0.1mM) and ascorbic acid (10 mM). After 30 min of incubation (37°C) the reaction was stopped with CCl3COOH (17% w/v) (Table 5). Trolox was used as a standard.
Superoxide (O2^-.) anion and hydroxyl radical (^.OH) are free radical species of potential importance. In the acidic conditions of ischemic brain, O2^-. is probably protonated to give HO2^-. species. Iron released from damaged brain cells is more likely to be readily available to catalyze the generation of OH radicals. Among the ROS, the hydroxyl (^•OH) free radical is possibly the most toxic, as it reacts with a number of biological important molecules. Polyunsaturated fatty acids are found in high concentrations in the CNS, and are particularly vulnerable by free radicals. Thus, we tried to test the ability of our compounds to scavenge hydroxyl radicals. […] All the derivatives of series 13 (except of 13i) present high antioxidant activity (80-100%) which is not able to be correlated with any specific structural characteristic since all contain a coumarin, a purine and an isoxazolyl moiery. […] It seems that the overall molar configuration influences the response. However, antioxidants with hydrophilic or lipophilic character are both needed to act as radical scavengers in the aqueous phase or as chain-breaking antioxidants in biological membranes.

T2 sequence (O42275 24-633): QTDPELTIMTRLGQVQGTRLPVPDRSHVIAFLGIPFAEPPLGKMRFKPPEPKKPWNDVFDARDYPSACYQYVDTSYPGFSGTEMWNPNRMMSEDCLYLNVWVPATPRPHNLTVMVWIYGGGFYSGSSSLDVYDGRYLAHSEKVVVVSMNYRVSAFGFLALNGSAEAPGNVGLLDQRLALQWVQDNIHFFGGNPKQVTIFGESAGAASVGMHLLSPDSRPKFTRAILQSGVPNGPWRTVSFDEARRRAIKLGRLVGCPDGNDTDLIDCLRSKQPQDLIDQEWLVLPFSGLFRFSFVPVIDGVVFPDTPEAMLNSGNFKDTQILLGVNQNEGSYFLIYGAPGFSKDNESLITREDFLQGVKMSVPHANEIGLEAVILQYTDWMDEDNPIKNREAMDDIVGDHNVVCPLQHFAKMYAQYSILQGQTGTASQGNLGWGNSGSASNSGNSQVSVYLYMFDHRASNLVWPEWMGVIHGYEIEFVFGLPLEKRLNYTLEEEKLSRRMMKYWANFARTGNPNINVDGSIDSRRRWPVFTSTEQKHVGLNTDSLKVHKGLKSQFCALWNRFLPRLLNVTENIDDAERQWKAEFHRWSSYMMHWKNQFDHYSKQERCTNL
T3 sequence (P81908 whole entry): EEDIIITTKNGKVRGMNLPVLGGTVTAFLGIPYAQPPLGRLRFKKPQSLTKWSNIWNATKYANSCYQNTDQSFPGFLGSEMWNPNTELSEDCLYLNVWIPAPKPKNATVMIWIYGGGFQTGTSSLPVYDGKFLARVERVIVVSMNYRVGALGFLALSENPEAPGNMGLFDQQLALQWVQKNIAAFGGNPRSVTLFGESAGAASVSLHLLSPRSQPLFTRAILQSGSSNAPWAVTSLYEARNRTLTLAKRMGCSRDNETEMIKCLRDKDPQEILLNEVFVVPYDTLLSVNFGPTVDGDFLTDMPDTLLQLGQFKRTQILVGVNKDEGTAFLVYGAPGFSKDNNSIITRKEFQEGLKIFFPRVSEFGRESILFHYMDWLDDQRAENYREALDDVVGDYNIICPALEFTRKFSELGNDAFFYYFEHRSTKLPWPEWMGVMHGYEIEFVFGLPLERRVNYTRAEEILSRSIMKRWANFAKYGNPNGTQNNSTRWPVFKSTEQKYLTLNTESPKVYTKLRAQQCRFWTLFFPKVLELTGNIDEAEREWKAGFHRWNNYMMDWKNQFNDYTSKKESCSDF

Cc1cc(=O)oc2ccc(OCC3CC(Cn4cnc5c(N6CCOCC6)ncnc54)=NO3)cc12 (stereo not drawn) [4b]
LP % @ 100μΜ (inhibition of lipid peroxidation) [1]: no | IC50 (soybean lipoxygenase): 60 µM | IC50 [2]: 2.3 µM | inhibition at 10 µM [3]: 17% | MAO-A (%) @ 10μΜ (rat monoamine oxidase A): no | MAO-B (%) @ 10μΜ (rat monoamine oxidase B): 24%

Cc1cc(=O)oc2cc(OCCC3CC(Cn4cnc5c(N6CCOCC6)ncnc54)=NO3)ccc12 (stereo not drawn) [4i]
LP % @ 100μΜ (inhibition of lipid peroxidation) [1]: 54% | inhibition at 100 µM (soybean lipoxygenase; read-out: %LOX @ 100μΜ): 2% | IC50 [2]: 7.7 µM | inhibition at 10 µM [3]: 15% | MAO-A (%) @ 10μΜ (rat monoamine oxidase A): 25% | MAO-B (%) @ 10μΜ (rat monoamine oxidase B): no

O=C(Oc1ccc2oc(=O)ccc2c1)C1CC(Cn2cnc3c(N4CCCCC4)ncnc32)=NO1 (stereo not drawn) [4n]
RA% @ 100μΜ (reducing activity, DPPH) [4]: 17% | ∙ΟΗ % @ 100μΜ (hydroxyl radical scavenging, percent inhibition of formaldehyde production) ([5]; 100 µM): did not present any activity and no | LP % @ 100μΜ (inhibition of lipid peroxidation) [1]: no | IC50 (soybean lipoxygenase): 35 µM | melting point: 175 to 177 °C

O=C(Oc1ccc2oc(=O)ccc2c1)C1CC(Cn2cnc3c(N4CCOCC4)ncnc32)=NO1 (stereo not drawn) [4o]
RA% @ 100μΜ (reducing activity, DPPH) [4]: 3% | ∙ΟΗ % @ 100μΜ (hydroxyl radical scavenging, percent inhibition of formaldehyde production) ([5]; 100 µM): did not present any activity and no | LP % @ 100μΜ (inhibition of lipid peroxidation) [1]: 40% | IC50 (soybean lipoxygenase): 60 µM | melting point: 184 to 185 °C

Cc1cc(=O)oc2cc(OCC3=NOC(Cn4cnc5c(N6CCCCC6)ncnc54)C3)ccc12 (stereo not drawn) [11d]
RA% @ 100μΜ (reducing activity, DPPH) [4]: 13% | ∙ΟΗ % @ 100μΜ (hydroxyl radical scavenging, percent inhibition of formaldehyde production) ([5]; 100 µM): did not present any activity and no | LP % @ 100μΜ (inhibition of lipid peroxidation) [1]: 43% | IC50 (soybean lipoxygenase): 48 µM | melting point: 144 to 145 °C

Cc1cc(=O)oc2cc(OCC3=NOC(Cn4cnc5c(Cl)ncnc54)C3)ccc12 (stereo not drawn) [11e]
LP % @ 100μΜ (inhibition of lipid peroxidation) [1]: 63% | %LOX @ 100μΜ (soybean lipoxygenase; 100 μM compound): no | IC50 [2]: 7.8 µM | inhibition at 10 µM [3]: 8% | MAO-A (%) @ 10μΜ (rat monoamine oxidase A): no | MAO-B (%) @ 10μΜ (rat monoamine oxidase B): 9%

O=c1ccc2ccc(OCc3cc(Cn4cnc5c(N6CCOCC6)ncnc54)on3)cc2o1 [15b]
RA% @ 100μΜ (reducing activity, DPPH) [4]: no | ∙ΟΗ % @ 100μΜ (hydroxyl radical scavenging, percent inhibition of formaldehyde production) [5]: 48% | LP % @ 100μΜ (inhibition of lipid peroxidation) [1]: 52% | IC50 (soybean lipoxygenase): 100 µM | melting point: 185 to 187 °C

O=c1ccc2ccc(OCC3=NOC(n4cnc5c(N6CCCCC6)ncnc54)C3)cc2o1 (stereo not drawn) [18a, 7-{[5-(6-piperidin-1-yl-9H-purin-9-yl)-4,5-dihydroisoxazol-3-yl]methoxy}-2H-chromen-2-one]
RA% @ 100μΜ (reducing activity, DPPH) [4]: 4% | ∙ΟΗ % @ 100μΜ (hydroxyl radical scavenging, percent inhibition of formaldehyde production) ([5]; 100 µM): did not present any activity and no | LP % @ 100μΜ (inhibition of lipid peroxidation) [1]: No | IC50 (soybean lipoxygenase): 90 µM | melting point: 197 to 199 °C

O=c1ccc2ccc(OCC3=NOC(n4cnc5c(N6CCOCC6)ncnc54)C3)cc2o1 (stereo not drawn) [18b]
RA% @ 100μΜ (reducing activity, DPPH) [4]: 1% | ∙ΟΗ % @ 100μΜ (hydroxyl radical scavenging, percent inhibition of formaldehyde production) ([5]; 100 µM): did not present any activity and no | LP % @ 100μΜ (inhibition of lipid peroxidation) [1]: 38% | IC50 (soybean lipoxygenase): 100 µM | melting point: 205 to 206 °C
